Patent US10509046B2, “Detection of indazole synthetic cannabinoids” (Randox Laboratories Limited, priority 2014, dated 2019)

How the values were obtained:
[1] = system: Antibody to AB-Pinaca-KLH (raised against immunogen 2 of Example 6); assay: Competitive ELISA characterising antibodies to AB-Pinaca-KLH with Tracer-1 (Example 9); format: binding
Experimental: The wells of an enhanced binding 96 well polystyrene microtitre plate were coated with IgG fraction of antiserum raised to AB-Pinaca-KLH (Immunogen 2 of Example 6), diluted in 10 mM Tris, pH8.5 (125 μl/well). The appropriate antibody coating dilution was determined using standard ELISA checkerboard techniques. The plate was incubated for 2 hours at 37° C., washed 4 times over 10 minutes with Tris buffered saline containing Tween 20 (TBST) and tapped dry. Standard solutions of AB-Pinaca pentanoic acid were prepared in TBST at 0, 0.31, 0.63, 1.25, 2.50, 5.0, 10.0 and 20.0 ng/ml, and 50 μl of each was added to the appropriate wells. 75 μl of Tracer-1 (Example 7) diluted in Tris buffer (pH 7.2) containing EDTA, D-mannitol, sucrose, thimerosal and BSA, was added to each of the wells. The appropriate dilution of tracer was also determined using standard ELISA checkerboard techniques. The plate was incubated at 25° C. for 1 hour. Excess unbound tracer was removed by washing 6 times over a 10-15 minute period with TBST and tapped dry. 125 μl of tetramethylbenzidine (TMB) substrate solution was added to each well of the plate that was then incubated for 20 minutes in the dark at room temperature. The reaction was terminated by addition of 125 μl 0.2 M H2SO4 to each well. The absorbance was measured at 450 nm using a microtitre plate reader. In order to determine the specificity of the competitive ELISAs, standard solutions of a range of structurally similar compounds were prepared in TBST. Using calibration curves generated from these compounds (0-20 ng/ml), the cross-reactivity was determined.

[2] = system: AB-PINACA antibody (raised against immunogen 2 of Example 6); assay: AB-PINACA ELISA, final validated kit with Tracer-2 (Example 10), specificity; format: binding; settings: AB-PINACA N-Pentanoic acid = 100
Experimental: A microtitre plates was precoated with AB-PINACA antibody (raised against immunogen 2 of Example 6). Pinaca derivative (antigen), if present in the sample competes with the horseradish peroxidase labelled AB-PINACA (enzyme labelled antigen, herein Tracer-2 of Example 8) for a limited number of antibody sites on the microtitre plate. After incubation at room temperature to allow a competition reaction to take place, the microtitre plate was washed to remove excess reagents. The enzyme substrate ([…]) was added. After an incubation period to allow maximum colour development, the colour reaction was stopped by the addition of acid. This produces a colour change from blue to yellow, and the absorbances are read at 450 nm. A standard curve was then constructed to determine the Pinaca derivative's concentration in the sample.
All reagents were left to reach room temperature (+15 to +25° C.) prior to use. In order to minimise edge effects microtitre plate was sealed with an adhesive plate sealer.
The assay was performed in duplicate. The following layout was used for a test plate where each box represents 2 wells.
• a) The following was pipetted into the appropriate wells of the microtitre plate:
• b) The microtitre plate was gently tapped plate from side to side for a few seconds. • c) The microtitre plate was covered with a plate sealer before incubating for 30 minutes at room temperature (+15 to +25° C.) in the dark. • d) The plate was inverted and the liquid was tapped out. • e) The plate was washed 6 times with diluted wash buffer (ensuring all wells were filled), over a 10-15 minute period. After the final wash the liquid was discarded and the plate was tapped onto lint free tissue paper until completely dry. • f) Immediately after washing, 125 μL of the one shot substrate II solution was pipetted into each well using a multichannel pipette. The microtitre plate was gently tapped from side to side and incubated for (20±2 minutes) at room temperature (+15 to +25° C.) in the dark. • g) The colour reaction was stopped by the addition of 100 μL of stop solution per well. A colour change from blue to yellow should be evident. • h) The optical density was measured at 450 nm within 10 minutes of stopping the colour reaction. The use of a 630 nm filter is recommended as the reference wavelength, if available. Standard Curve and Interpretation of Results • a) The mean absorbance of the standards, controls and samples were calculated. • b) The absorbances of standards against log10 (standard concentration) were plotted. • c) The control and sample concentrations were read from the standard curve. • d) To obtain concentrations for urine samples in ng/mL, the results were multiplied by 3 to take into account the dilution factor. • e) To obtain concentrations for whole blood samples in ng/mL, the results were multiplied by 4 to take into account the dilution factor. • f) It is recommended that a 4 parameter curve fit method is used when generating the standard curve. Limits of Detection

Structure (SMILES): CCCCCn1nc(C(=O)NC(C(N)=O)C(C)C)c2ccccc21 (centres unmarked) [AB-Pinaca, N-(1-amino-3-methyl-1-oxobutan-2-yl)-1-pentyl-1H-indazole-3-carboxamide]
- % CR (percentage cross-reactivity) ([1]; AB-Pinaca = 100.00): 100.00%
- IC50 (standard concentration which produces 50% inhibition of maximal signal) ([1]; calibration curves 0-20 ng/ml): 1.107 ng/mL
- B/Bo (Percentage B/B0) ([1]; standard conc 0.31 ng/ml): 70.1%
- OD (absorbance at 450 nm) ([1]; standard conc 0.31 ng/ml): 1.532
- B/Bo (Percentage B/B0) ([1]; standard conc 0.63 ng/ml): 60.7%
- OD (absorbance at 450 nm) ([1]; standard conc 0.63 ng/ml): 1.325
- B/Bo (Percentage B/B0) ([1]; standard conc 1.25 ng/ml): 47.4%
- OD (absorbance at 450 nm) ([1]; standard conc 1.25 ng/ml): 1.036
- B/Bo (Percentage B/B0) ([1]; standard conc 2.50 ng/ml): 35.6%
- OD (absorbance at 450 nm) ([1]; standard conc 2.50 ng/ml): 0.778
- B/Bo (Percentage B/B0) ([1]; standard conc 5.00 ng/ml): 27.2%
- OD (absorbance at 450 nm) ([1]; standard conc 5.00 ng/ml): 0.593
- B/Bo (Percentage B/B0) ([1]; standard conc 10.00 ng/ml): 18.5%
- OD (absorbance at 450 nm) ([1]; standard conc 10.00 ng/ml): 0.404
- B/Bo (Percentage B/B0) ([1]; standard conc 20.00 ng/ml): 12.2%
- OD (absorbance at 450 nm) ([1]; standard conc 20.00 ng/ml): 0.267
- % Cross-Reactivity [2]: 52.4%
